Laboratory results published in US7049334B2, “Enhancement of learning and memory and treatment of amnesia” (priority 2001, dated 2006).
Several values for one entry are separate records, joined by “and”; a condition that tells them apart may be missing. Equal entries are not always repeated.

Tests used:
[1] = system: rats (passive avoidance learning); test: One-trial step-through passive inhibitory avoidance task; type: in vivo
From the text: Passive Avoidance and active avoidance task: Rats were trained and tested on a one-trial step-through passive inhibitory avoidance task with a procedure as described in Liang et al. (1998, Chin. J. Physiol. 41: 33–44). Briefly, an apparatus was a trough-shape alley divided by a sliding door into a well-lit safe compartment and a dark shock compartment. A rat was placed in the lit side facing away from the door. As the rat turned around, the door was opened. After the rat stepped into the dark compartment, it received an inescapable footshock via a constant current shocker controlled by a timer (Lafayette Instruments, Model 80240 and Model 58010, Indiana, USA). After administration of the foot-shock, the rat was removed from the alley and returned to its home cage. In a retention test given 24 hrs or 10 days later, the rat was reintroduced into the alley and the latency of stepping into the shock compartment with all four feet was taken as a retention score.
The amygdala is also implicated in learning and memory. Studies have shown that this brain structure is particularly involved in processing affective information. See, e.g., Cahill and McGaugh (1990) Behav. Neurosci. 104: 532–543; and Gilbert et al. (1991) Behav. Neurosci. 105: 533–561. It has been reported that nitric oxide is also involved in activity-dependent synaptic plasticity and passive avoidance learning in amygdaloid nucleus. See, e.g., Bernabeu et al. (1995) NeuroReport 6: 1498–1500; Watanabe et al. (1995) Brain Res. 688: 233–236; and Teledgy and Kokavszky (1997) Neuropharmacology 36: 1583–1587. The effect of Compound 1 on passive avoidance learning was studied. Compound 1 was injected (i.p., 1 mg/kg) 10 min before foot-shock training. […] The memory lasts for several days. The retention scores were very high even if tested on day 10. There were much more rats which had retention latencies longer than 5 min in Compound 1-treated rats (2 out of 15 in a control group and 11 out of 12 in a Compound 1-treated group, respectively) tested on both day-1 and day-10. When the Compound 1 was mixed with 1.25% CMC and delivered to stomach directly (10 mg/kg) before foot-shock. The retention test was performed 1 day and 10 days later, respectively. […] Rats of 1-year-old were chosen for this experiment. Compound 1 (1 mg/kg) was i.p. injected 10 min before foot-shock. The retention test was performed 1 day and 10 days later, respectively.

[2] = system: cortico-amygdala pathway (lateral amygdala); test: LTP in cortico-amygdala pathway (fEPSP); type: cell-based, Wistar rats; conditions: three trains (100 Hz, 1 sec at 3 min interval); in the presence of compound 1; n=4
Experimental: After decapitation, brains of either adult ([…], for the induction of long-term potentiation) or young (2–3 weeks old, for the induction of long-term depression) Wistar rats were rapidly removed, and the hippocampus was dissected out. Transverse hippocampal slices (450 μm thickness) were immediately placed in an ice-cold cutting buffer containing 124 mM NaCl, 3 mM KCl, 1.0 mM Na2HPO4, 25 mM NaHCO3, 0.5 mM CaCl2, 5.0 mM MgSO4, 10 mM glucose, saturated with 95% O2 and 5% CO2. The slices were then maintained in an interface chamber at room temperature, and perfused at flow rate of 1–2 mL/min with artificial cerebrospinal fluid (ACSF). […] The test pulse duration was 100 μsec, and test responses were elicited at 0.02 Hz. To record field potentials in the cortico-amygdala pathway, a stimulating electrode was placed in the external capsule, which contained fibers from the auditory cortex to the lateral amygdala. Bicuculine (10 μM) was present in the perfusion solution when the fEPSPs of amygdala were recorded. […] Evoked fEPSPs were recorded and data were analyzed. The initial slope of the fEPSPs was calculated, and the data were expressed as percentages of the average of the base-line slope of the fEPSPs. […]

[3] = system: mice (motor learning); test: Rotorod test; type: in vivo; conditions: i.p. 1 mg/kg 20 min before first trial, 28 rpm
Experimental: Rotorod Test: This experiment was performed with mice (male, 20–25 gm). A rotorod apparatus was a plastic cylindrical rod (3 cm in diameter×13 cm in length). The rod was supported at the ends by two walls and was 25 cm from the base of the walls. The walls at the ends of the rod were high enough so that the mice cannot climb off the rod. Three trials were performed for each experiment. Compound 1 (1 mg/kg) or vehicle was i.p. injected 20 min before the first trial. For each trial of the rotorod test, the mice were placed on the rod and timed until they fell off the rod. They were timed up to a maximum of 3 min. The interval was 10 min. The rod was turned by an electric motor at 28 rpm.
Cerebellar nitric oxide has been also reported to be involved in LTD and motor learning. See, e.g., Li et al. (1995) J. Neurophysiol. 74: 489–494. Compound 1 improving motor learning was studied. Mice were chosen for this kind of experiment. […] The performance of control mice got improvement with increasing trial numbers, with a better improvement at the third trial. […] It is obvious that Compound 1 can also improve motor learning by mainly acting on the cerebellum.

[4] = system: rats (active avoidance); test: Active avoidance task; type: in vivo
Experimental: For the test of active avoidance, the rat was placed in the dark compartment, facing the door. The door was opened halfway, and the rat had 10 sec to shuttle over the door to lit compartment. Rat was not chosen for this experiment if the rat crossed to the safe side within 10 sec. Foot-shock was turned on at 10 s later. Rat escaped into safe compartment and the door was closed. The retention time on dark shock compartment was measured 48 hr later. The rats were discarded once the rats enter lit compartment within 10 s on the day of context training. Foot-shock was administered 10 s after putting in the dark compartment on day-1. Memory retention was tested on day-2.

[5] = aged rats (1-year-old), i.p. 1 mg/kg 10 min before foot-shock
[6] = aged rats (1-year-old), i.p. 1 mg/kg 10 min before foot-shock, 1 mg/kg
[7] = oral 10 mg/kg in 1.25% CMC before foot-shock
[8] = oral 10 mg/kg in 1.25% CMC before foot-shock, ceiling 300 s or 600 s, 10 mg/kg
[9] = injection 10 min before foot-shock

Structure (SMILES): OCc1ccc(-c2nn(Cc3ccccc3)c3ccccc23)o1 [Compound 1, 1-benzyl-3-(5′-hydroxymethyl-2′-furyl)-indazole]
- enhancement effect induced by Compound 1, with KT5823 ([1]; KT5823 i.c.v. 0.2 nmole): significantly antagonized
- enhancement effect induced by Compound 1, with L-NAME ([1]; L-NAME i.c.v. 1 mmole): significantly antagonized
- retention scores when given before context training ([1]; administered 10 min before the context training instead of the foot-shock): prolonged the retention scores
- Retention Scores Day-1, mean ± std [1, 5]: mean ± std 233.0 ± 47.3 sec
- Retention Scores Day-10, mean ± std [1, 5]: 181.4 ± 55.7 s
- Retention Scores Day-1, individual rats [1, 6]: >300 sec (3×) and 207.1 sec and 58.1 sec
- Retention Scores Day-10, individual rats [1, 6]: 252.2 s and 255.9 s and 85.8 s and >300 s and 12.9 s
- retention latencies in the lighted compartment ([1]; i.p. 1 mg/kg 10 min before foot-shock training): markedly prolonged
- rats with retention latencies longer than 5 min ([1]; i.p. 1 mg/kg, tested on both day-1 and day-10): 11 out of 12
- effect on avoidance behavior when injected after foot-shock ([1]; injected 30 min after foot-shock): did not exert any effect
- Retention Scores Day-1, mean ± std [1, 7]: mean ± std 369.2 ± 70.2 sec
- Retention Scores Day-10, mean ± std [1, 7]: 437.3 ± 62.4 s
- Retention Scores Day-1, individual rats [1, 8]: >600 sec (4×) and 15.0 sec and >300 sec (4×) and 77.1 sec
- Retention Scores Day-10, individual rats [1, 8]: 454.0 sec and >600 sec (4×) and 15.0 sec and 207.1 sec and 453.2 sec and 343.2 sec and 500.2 sec
- duration of enduring LTP in amygdala [2]: at least 1 hr
- motor coordination on a turning rotorod [3]: significantly improved motor coordination
- memory enhancement effect induced by Compound 1, with KT5823 ([4]; KT5823 i.c.v. 0.2 nmole): effectively inhibited
- memory enhancement effect induced by Compound 1, with L-NAME ([4]; L-NAME i.c.v. 1 mmole): effectively inhibited
- escape latency from the shock- to the safe-compartment [4, 9]: decrease
- retention of memory [4, 9]: noticeable increase
